Article PMC3539793 (Neuroscience letters, 2012)
Non-standard residues stand in square brackets, D forms with d. Residues, ends and D or L forms follow the SMILES beside them. *: point of attachment. X1 = OC[C@H]1O[C@@H](O[C@H]2[C@H](O)[C@@H](O)[C@H](*)O[C@@H]2CO)[C@H](O)[C@@H](O)[C@H]1O

Experiments:
[1] = system: μ-opioid receptor; details: cited from earlier work
[2] = system: allodynia; details: rhesus monkeys; i.m.; cited from earlier work
[3] = type: in vivo, rat
[4] = system: apomorphine-induced overshoot in movement; details: reserpine-treated akinesia rats; cited from earlier work
[5] = rhesus monkeys; i.m. injection; cited from earlier work
[6] = system: δ-opioid receptor; details: cited from earlier work
[7] = system: thermal nociception; details: rhesus monkeys; i.m.; cited from earlier work

Q: For `CC(C)C[C@H](NC(=O)[C@H](Cc1ccccc1)NC(=O)CNC(=O)[C@H](NC(=O)[C@@H](N)Cc1ccc(O)cc1)[C@H](C)O)C(=O)N[C@@H](CO[C@@H]1O[C@H](CO)[C@@H](O[C@@H]2O[C@H](CO)[C@H](O)[C@H](O)[C@H]2O)[C@H](O)[C@H]1O)C(N)=O` [MMP-2200, Tyr-D-Thr-Gly-Phe-Leu-Ser(β-O-Glc)-CONH2] (H-Y[dT]GFLS(X1)-NH2; N-terminus assumed), which “affinity for μ-opioid receptor” value [1] is on record?
A: Its value is “nanomolar”.

Q: What about the anti-allodynic effects [2] of the same molecule?
A: The anti-allodynic effects was “comparable to morphine”.

Q: What about the “MMP-2200 concentration in DLS reached within 10 minutes” value ([3]; rat, systemic administration (i.p.), highlights) of the same molecule?
A: The value was “nM range”.

Q: And the “effect of MMP-2200 injection on endogenous leu-ENK level in DLS” value ([3]; rats, MMP-2200 10 mg/kg i.p., 80 min, repeated measures ANOVA p = 0.8, n = 5)?
A: Its value is “unchanged”.

Q: And the “apomorphine-induced overshoot in movement” value [4]?
A: The value was “reversed”.

Q: What about the CNS distribution [5] of the same molecule?
A: The CNS distribution was “very limited”.

Q: And the “affinity for δ-opioid receptor” value [6]?
A: The value was “nanomolar”.

Q: What about the “effect in tail flick model of thermal nociception” value [7] of the same molecule?
A: Its value is “not very effective”.
